Assays:
[1] = tested on: bermuda-grass; assay: Test D bermudagrass; type: in vivo, Cynodon dactylon; settings: Preemergence, 0 to 100 scale
Procedure, shortened: (§1)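 Weed seeds planted in sandy loam; species kept apart in individual pots or compartments. Preemergence tests: treatment to soil surface within one day. Greenhouse growth, then visual injury scoring at 14–21 days (0–100).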

[2] = tested on: common pursiane; assay: Test D common purslane; type: in vivo, Portulaca oleracea; settings: Preemergence, 0 to 100 scale
Procedure, shortened: as §1

[3] = tested on: common groundsel; assay: Test D common groundsel; type: in vivo, Senecio vulgaris; settings: Preemergence, 0 to 100 scale
Procedure, shortened: as §1

[4] = tested on: guineagrass; assay: Test D guineagrass; type: in vivo, Panicum maximum; settings: Preemergence, 0 to 100 scale
Procedure, shortened: as §1

[5] = tested on: itchgrass; assay: Test D itchgrass; type: in vivo, Rottboellia exaltata; settings: Preemergence, 0 to 100 scale
Procedure, shortened: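 Scoring used a 0–100 visual injury scale, with 0 meaning no effect and 100 complete control, assessed 14–21 days after application alongside untreated pots. Preemergence treatments went onto sandy loam surfaces of separately potted seeds within a day of sowing.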

[6] = tested on: Johnson grass; assay: Test D Johnson grass; type: in vivo, Sorghum halepense; settings: Preemergence, 0 to 100 scale
Procedure, shortened: as §1

[7] = tested on: large crabgrass; assay: Test D large crabgrass; type: in vivo, Digitaria sanguinalis; settings: Preemergence, 0 to 100 scale
Procedure, shortened: as §1

[8] = tested on: pitted morningglory; assay: Test D pitted morningglory; type: in vivo, Ipomoea lacunosa; settings: Preemergence, 0 to 100 scale
Procedure, shortened: as §1

[9] = tested on: purple nutsedge; assay: Test D purple nutsedge; type: in vivo, Cyperus rotundus; settings: Preemergence, 0 to 100 scale
Procedure, shortened: as §1

[10] = tested on: sandbur; assay: Test D sandbur; type: in vivo, Cenchrus echinatus; settings: Preemergence, 0 to 100 scale
Procedure, shortened: as §1

[11] = tested on: Spanishneedles; assay: Test D Spanishneedles; type: in vivo, Bidens bipinnata; settings: Preemergence, 0 to 100 scale
Procedure, shortened: as §1

[12] = tested on: surinam grass; assay: Test D surinam grass; type: in vivo, Brachiaria decumbens; settings: Preemergence, 0 to 100 scale
Procedure, shortened: as §1

[13] = tested on: tall mallow; assay: Test D tall mallow; type: in vivo, Malva sylvestris; settings: Preemergence, 0 to 100 scale
Procedure, shortened: as §1

[14] = tested on: Green foxtail; assay: Test D green foxtail; type: in vivo; settings: Preemergence, 0 to 100 scale
Procedure, shortened: as §1

[15] = tested on: Green foxtail; assay: Test D green foxtail; type: in vivo
Procedure, shortened: as §1

[16] = Rate 16 g/ha, 0 no injury, 100 complete control
[17] = Rate 32 g/ha, 0 no injury, 100 complete control
[18] = Rate 64 g/ha, 0 no injury, 100 complete control
[19] = Rate 125 g/ha, 0 no injury, 100 complete control
[20] = Rate 64 g/ha, Preemergence; 0 to 100 scale, 0 no injury, 100 complete control
[21] = Rate 125 g/ha, Preemergence; 0 to 100 scale, 0 no injury, 100 complete control

CC(C)N(C(=O)n1oc(=O)n(N(C)C)c1=O)c1ccc(F)cc1 [Compound 170]
Plant response rating, Bermudagrass [1, 16]: 80
Plant response rating, Bermudagrass [1, 17]: 90
Plant response rating, Bermudagrass [1, 18]: 100
Plant response rating, Bermudagrass [1, 19]: 100
Plant response rating, Bermudagrass ([1]; Rate 250 g/ha): 100
Plant response rating, Bermudagrass ([1]; Rate 500 g/ha): 100
Plant response rating, C. purslane [2, 16]: 0
Plant response rating, C. purslane [2, 17]: 0
Plant response rating, C. purslane [2, 18]: 0
Plant response rating, C. purslane [2, 19]: 0
Plant response rating, C. purslane ([2]; Rate 250 g/ha): 0
Plant response rating, C. purslane ([2]; Rate 500 g/ha): 10
Plant response rating, Com. groundsel [3, 16]: 0
Plant response rating, Com. groundsel [3, 17]: 0
Plant response rating, Com. groundsel [3, 18]: 0
Plant response rating, Com. groundsel [3, 19]: 45
Plant response rating, Com. groundsel ([3]; Rate 250 g/ha): 45
Plant response rating, Com. groundsel ([3]; Rate 500 g/ha): 100
Plant response rating, Guineagrass [4, 16]: 0
Plant response rating, Guineagrass [4, 17]: 85
Plant response rating, Guineagrass [4, 18]: 98
Plant response rating, Guineagrass [4, 19]: 100
Plant response rating, Guineagrass ([4]; Rate 250 g/ha): 100
Plant response rating, Guineagrass ([4]; Rate 500 g/ha): 100
Plant response rating, Itchgrass [5, 16]: 0
Plant response rating, Itchgrass [5, 17]: 0
Plant response rating, Itchgrass [5, 18]: 0
Plant response rating, Itchgrass [5, 19]: 30
Plant response rating, Itchgrass ([5]; Rate 250 g/ha): 45
Plant response rating, Itchgrass ([5]; Rate 500 g/ha): 50
Plant response rating, Johnsongrass [6, 16]: 0
Plant response rating, Johnsongrass [6, 17]: 0
Plant response rating, Johnsongrass [6, 18]: 0
Plant response rating, Johnsongrass [6, 19]: 75
Plant response rating, Johnsongrass ([6]; Rate 250 g/ha): 100
Plant response rating, Johnsongrass ([6]; Rate 500 g/ha): 95
Plant response rating, Large crabgrass [7, 16]: 30
Plant response rating, Large crabgrass [7, 17]: 85
Plant response rating, Large crabgrass [7, 18]: 100
Plant response rating, Large crabgrass [7, 19]: 100
Plant response rating, Large crabgrass ([7]; Rate 250 g/ha): 100
Plant response rating, Large crabgrass ([7]; Rate 500 g/ha): 100
Plant response rating, P. morninglory [8, 16]: 20
Plant response rating, P. morninglory [8, 17]: 20
Plant response rating, P. morninglory [8, 18]: 20
Plant response rating, P. morninglory [8, 19]: 40
Plant response rating, P. morninglory ([8]; Rate 250 g/ha): 65
Plant response rating, P. morninglory ([8]; Rate 500 g/ha): 85
Plant response rating, Purple nutsedge [9, 16]: 0
Plant response rating, Purple nutsedge [9, 17]: 0
Purple nutsedge plant response rating [9, 18]: 0
Purple nutsedge plant response rating [9, 19]: 0
Plant response rating, Purple nutsedge ([9]; Rate 250 g/ha): 65
Plant response rating, Purple nutsedge ([9]; Rate 500 g/ha): 65
Plant response rating, Sandbur [10, 16]: 0
Plant response rating, Sandbur [10, 17]: 0
Sandbur plant response rating [10, 18]: 40
Sandbur plant response rating [10, 19]: 40
Plant response rating, Sandbur ([10]; Rate 250 g/ha): 40
Plant response rating, Sandbur ([10]; Rate 500 g/ha): 98
Plant response rating, Spanishneedles [11, 16]: 0
Plant response rating, Spanishneedles [11, 17]: 0
Spanishneedles plant response rating [11, 18]: 0
Spanishneedles plant response rating [11, 19]: 0
Plant response rating, Spanishneedles ([11]; Rate 250 g/ha): 40
Plant response rating, Spanishneedles ([11]; Rate 500 g/ha): 85
Plant response rating, Surinam grass [12, 16]: 0
Plant response rating, Surinam grass [12, 17]: 0
Surinam grass plant response rating [12, 18]: 30
Surinam grass plant response rating [12, 19]: 75
Plant response rating, Surinam grass ([12]; Rate 250 g/ha): 100
Plant response rating, Surinam grass ([12]; Rate 500 g/ha): 100
Plant response rating, Tall Mallow [13, 16]: 30
Plant response rating, Tall Mallow [13, 17]: 30
Tall Mallow plant response rating [13, 18]: 30
Tall Mallow plant response rating [13, 19]: 30
Plant response rating, Tall Mallow ([13]; Rate 250 g/ha): 40
Plant response rating, Tall Mallow ([13]; Rate 500 g/ha): 45
Plant response rating, Green foxtail ([14]; Rate 250 g/ha): 100
Plant response rating, Green foxtail ([14]; Rate 500 g/ha): 100
Plant response rating, Green foxtail ([15]; Preemergence; Rate 16 g/ha; 0 to 100 scale, 0 no injury, 100 complete control): 65
Plant response rating, Green foxtail ([15]; Preemergence; Rate 32 g/ha; 0 to 100 scale, 0 no injury, 100 complete control): 75
Plant response rating, Green foxtail ([15]; Rate 16 g/ha; Preemergence; 0 to 100 scale, 0 no injury, 100 complete control): 65
Plant response rating, Green foxtail ([15]; Rate 32 g/ha; Preemergence; 0 to 100 scale, 0 no injury, 100 complete control): 100
Green foxtail plant response rating [15, 20]: 100
Plant response rating, Green foxtail [15, 20]: 100
Green foxtail plant response rating [15, 21]: 100
Plant response rating, Green foxtail [15, 21]: 100
Plant response rating, Green foxtail ([15]; Rate 250 g/ha; Preemergence; 0 to 100 scale): 100
Plant response rating, Green foxtail ([15]; Rate 500 g/ha, Preemergence; 0 to 100 scale): 100

Reference: US6737383B1, “Herbicidal oxadiazolidines” (priority 1999, dated 2004)
